Numbers after ± are expanded uncertainties.
How the values were obtained:
[1] = 101.33 kPa, Liquid
[2] = xn = mol fraction of the nth substance listed; settings: 101 kPa, Liquid

CCCCCCOCCOCCO [2-(2-hexyloxyethoxy)ethanol]
[1]
Settings | mass density [kg/m3]
288.15 K | 924.348 ± 0.29
298.15 K | 915.522 ± 0.3
308.15 K | 906.642 ± 0.31

CCCCCCOCCOCCO [2-(2-hexyloxyethoxy)ethanol] + CCCCCCCO
mass density [kg/m3], [2]
Settings | 288.15 K | 298.15 K | 308.15 K
x1 = 0.1109 | 840.489 ± 0.41 | 833.182 ± 0.42 | 825.922 ± 0.43
x1 = 0.1592 | 846.447 ± 0.4 | 839.091 ± 0.41 | 831.645 ± 0.42
x1 = 0.1986 | 851.154 ± 0.39 | 843.756 ± 0.4 | 836.178 ± 0.41
x1 = 0.258 | 857.994 ± 0.38 | 850.491 ± 0.39 | 842.797 ± 0.41
x1 = 0.3094 | 863.644 ± 0.38 | 856.08 ± 0.39 | 848.254 ± 0.4
x1 = 0.3515 | 868.149 ± 0.37 | 860.468 ± 0.38 | 852.588 ± 0.39
x1 = 0.3927 | 872.418 ± 0.36 | 864.636 ± 0.37 | 856.716 ± 0.39
x1 = 0.4463 | 877.834 ± 0.35 | 869.912 ± 0.36 | 861.89 ± 0.38
x1 = 0.5084 | 883.872 ± 0.34 | 875.796 ± 0.36 | 867.692 ± 0.37
x1 = 0.5574 | 888.492 ± 0.34 | 880.349 ± 0.35 | 872.159 ± 0.36
x1 = 0.6167 | 893.921 ± 0.33 | 885.645 ± 0.34 | 877.389 ± 0.35
x1 = 0.6511 | 896.97 ± 0.33 | 888.674 ± 0.34 | 880.331 ± 0.35
x1 = 0.7101 | 902.042 ± 0.32 | 893.703 ± 0.33 | 885.279 ± 0.34
x1 = 0.7491 | 905.269 ± 0.31 | 896.923 ± 0.33 | 888.446 ± 0.34
x1 = 0.8085 | 910.029 ± 0.31 | 901.658 ± 0.32 | 893.122 ± 0.33
x1 = 0.8543 | 913.588 ± 0.3 | 905.198 ± 0.31 | 896.613 ± 0.33
x1 = 0.9087 | 917.663 ± 0.29 | 909.197 ± 0.31 | 900.531 ± 0.32
x1 = 0.9487 | 920.583 ± 0.29 | 912.028 ± 0.3 | 903.307 ± 0.32

CCCCCCOCCOCCO [2-(2-hexyloxyethoxy)ethanol] + CCCCCO
mass density [kg/m3], [2]
Settings | 288.15 K | 298.15 K | 308.15 K
x1 = 0.1112 | 837.545 ± 0.41 | 830.059 ± 0.42 | 822.319 ± 0.44
x1 = 0.1587 | 846.35 ± 0.4 | 838.122 ± 0.41 | 830.389 ± 0.42
x1 = 0.2096 | 855.128 ± 0.39 | 846.145 ± 0.4 | 838.566 ± 0.41
x1 = 0.2584 | 862.625 ± 0.38 | 853.171 ± 0.39 | 845.659 ± 0.4
x1 = 0.3012 | 868.44 ± 0.37 | 858.72 ± 0.38 | 851.35 ± 0.39
x1 = 0.3558 | 874.88 ± 0.36 | 865.166 ± 0.37 | 857.77 ± 0.38
x1 = 0.4022 | 879.672 ± 0.35 | 870.098 ± 0.36 | 862.642 ± 0.38
x1 = 0.4506 | 884.17 ± 0.34 | 874.849 ± 0.36 | 867.245 ± 0.37
x1 = 0.5069 | 889.049 ± 0.34 | 880.057 ± 0.35 | 872.125 ± 0.36
x1 = 0.541 | 891.897 ± 0.33 | 883.079 ± 0.35 | 874.951 ± 0.36
x1 = 0.5971 | 896.445 ± 0.33 | 887.853 ± 0.34 | 879.382 ± 0.35
x1 = 0.6456 | 900.337 ± 0.32 | 891.848 ± 0.33 | 883.098 ± 0.35
x1 = 0.6998 | 904.59 ± 0.31 | 896.131 ± 0.33 | 887.198 ± 0.34
x1 = 0.747 | 908.177 ± 0.31 | 899.702 ± 0.32 | 890.721 ± 0.34
x1 = 0.8052 | 912.354 ± 0.3 | 903.888 ± 0.32 | 894.96 ± 0.33
x1 = 0.8501 | 915.348 ± 0.3 | 906.892 ± 0.31 | 898.056 ± 0.32
x1 = 0.9008 | 918.511 ± 0.29 | 910.007 ± 0.31 | 901.375 ± 0.32
x1 = 0.9459 | 921.161 ± 0.29 | 912.609 ± 0.3 | 903.991 ± 0.32

CCCCCCOCCOCCO [2-(2-hexyloxyethoxy)ethanol] + CCCO
mass density [kg/m3], [2]
Settings | 288.15 K | 298.15 K | 308.15 K
x1 = 0.1085 | 837.518 ± 0.41 | 829.325 ± 0.43 | 820.919 ± 0.44
x1 = 0.1608 | 848.615 ± 0.4 | 840.381 ± 0.41 | 831.968 ± 0.42
x1 = 0.2102 | 857.751 ± 0.38 | 849.425 ± 0.4 | 841.022 ± 0.41
x1 = 0.2477 | 863.891 ± 0.38 | 855.521 ± 0.39 | 847.161 ± 0.4
x1 = 0.2972 | 871.227 ± 0.36 | 862.829 ± 0.38 | 854.397 ± 0.39
x1 = 0.3493 | 878.129 ± 0.35 | 869.65 ± 0.37 | 861.101 ± 0.38
x1 = 0.4048 | 884.6 ± 0.34 | 876.088 ± 0.36 | 867.464 ± 0.37
x1 = 0.46 | 890.404 ± 0.34 | 881.84 ± 0.35 | 873.153 ± 0.36
x1 = 0.5003 | 894.261 ± 0.33 | 885.64 ± 0.34 | 876.925 ± 0.35
x1 = 0.5584 | 899.282 ± 0.32 | 890.668 ± 0.34 | 881.873 ± 0.35
x1 = 0.6066 | 903.088 ± 0.32 | 894.428 ± 0.33 | 885.633 ± 0.34
x1 = 0.6604 | 906.948 ± 0.31 | 898.225 ± 0.32 | 889.461 ± 0.34
x1 = 0.6964 | 909.32 ± 0.31 | 900.561 ± 0.32 | 891.847 ± 0.33
x1 = 0.7532 | 912.745 ± 0.3 | 903.981 ± 0.32 | 895.267 ± 0.33
x1 = 0.8054 | 915.595 ± 0.3 | 906.826 ± 0.31 | 898.1 ± 0.32
x1 = 0.8563 | 918.152 ± 0.29 | 909.394 ± 0.31 | 900.587 ± 0.32
x1 = 0.9044 | 920.357 ± 0.29 | 911.598 ± 0.3 | 902.735 ± 0.32
x1 = 0.9593 | 922.69 ± 0.29 | 913.937 ± 0.3 | 905.015 ± 0.31

CCCCCCOCCOCCO [2-(2-hexyloxyethoxy)ethanol] + CO
mass density [kg/m3], [2]
Settings | 288.15 K | 298.15 K | 308.15 K
x1 = 0.1165 | 853.467 ± 0.39 | 844.018 ± 0.41 | 834.816 ± 0.42
x1 = 0.162 | 865.705 ± 0.37 | 856.244 ± 0.39 | 846.965 ± 0.4
x1 = 0.2113 | 875.875 ± 0.36 | 866.451 ± 0.37 | 857.177 ± 0.39
x1 = 0.266 | 884.716 ± 0.34 | 875.458 ± 0.36 | 866.337 ± 0.37
x1 = 0.3119 | 890.88 ± 0.34 | 881.656 ± 0.35 | 872.742 ± 0.36
x1 = 0.3606 | 896.388 ± 0.33 | 887.19 ± 0.34 | 878.481 ± 0.35
x1 = 0.4012 | 900.31 ± 0.32 | 891.16 ± 0.33 | 882.585 ± 0.35
x1 = 0.4577 | 904.872 ± 0.31 | 895.844 ± 0.33 | 887.363 ± 0.34
x1 = 0.5071 | 908.159 ± 0.31 | 899.262 ± 0.32 | 890.741 ± 0.33
x1 = 0.5578 | 911.041 ± 0.3 | 902.168 ± 0.32 | 893.568 ± 0.33
x1 = 0.6037 | 913.218 ± 0.3 | 904.353 ± 0.31 | 895.701 ± 0.33
x1 = 0.6644 | 915.682 ± 0.3 | 906.87 ± 0.31 | 898.078 ± 0.32
x1 = 0.7102 | 917.283 ± 0.29 | 908.456 ± 0.31 | 899.602 ± 0.32
x1 = 0.7533 | 918.633 ± 0.29 | 909.864 ± 0.31 | 901.011 ± 0.32
x1 = 0.7928 | 919.837 ± 0.29 | 911.054 ± 0.3 | 902.199 ± 0.32
x1 = 0.8517 | 921.511 ± 0.29 | 912.714 ± 0.3 | 903.777 ± 0.32
x1 = 0.9 | 922.714 ± 0.29 | 913.911 ± 0.3 | 905.244 ± 0.31
x1 = 0.9674 | 924.001 ± 0.28 | 915.182 ± 0.3 | 906.508 ± 0.31

CCCCCCCO [heptan-1-ol]
[1]
Settings | mass density [kg/m3]
288.15 K | 825.943 ± 0.43
298.15 K | 818.789 ± 0.45
308.15 K | 812.385 ± 0.46

CO [methanol]
[1]
Settings | mass density [kg/m3]
288.15 K | 795.969 ± 0.48
298.15 K | 786.548 ± 0.49
308.15 K | 777.067 ± 0.51

CCCCCO [pentan-1-ol]
[1]
Settings | mass density [kg/m3]
288.15 K | 818.336 ± 0.45
298.15 K | 811.001 ± 0.46
308.15 K | 803.302 ± 0.47

CCCO [propan-1-ol]
[1]
Settings | mass density [kg/m3]
288.15 K | 807.898 ± 0.46
298.15 K | 799.666 ± 0.47
308.15 K | 791.765 ± 0.49

— the NIST ThermoML archive (doi:10.1016/j.fluid.2008.02.005)
